Holding throughout (format): cell-based, Human
One test has as its system Kasumi-1. Kind of test: Labelling of cells, fluorescence cancer/non cancer ratio: Kasumi-1 vs B12-F8. The conditions noted are these: fluorescence signal ratio; Kasumi-1 (Blood, Acute Myeloid Leukemia, 48 h) vs B12-F8 (24 h); one doubling time. The protocol: (§1) The cell lines were grown in suitable medium, supplemented by 10% fetal bovine serum (FBS) (VWR international S.A.S). The culture medium was changed every two days. The passaging of cells was performed using Tryp-LE express 1× (Gibco). The cell viability was estimated using trypan blue exclusion tests.
(§2) Cells were seeded in 24-well plates, at a density of 5×10^4 cells/well. Then, cells were incubated at 37° C., 5% CO2, during 24 hours. The culture media were adapted to the tested cells and supplemented by 10% fetal bovine serum (FBS). The incubation time corresponded to one doubling time of the tested cells. The fluorescence signal cancer/non cancer ratios were calculated based on fluorescence intensities obtained with Xylose-N3 or Ribose-N3 tested on cancer and corresponding non cancer cells.
(§3) The fluorescence assimilation of Xylose-N3 or Ribose-N3 probes was visualized by copper-free click chemistry using sulfo-DBCO-biotin (1 mM), followed by labeling with a mouse anti-biotin Alexa Fluor 488 antibody conjugate (0.62 mg/ml stock, Jackson ImmunoResearch, dilution 1/10). […]
(§4) The fluorescence acquisition was recorded using Olympus Microscopy IX83 (Olympus Life Science) equipped with a 60×/1.3 […]/1.4 SRI (silicone refractive index) objective, and Hamamatsu oreca flash 4 LT camera with 109 nm/pixel calibrated pixel size. […]

A further test has as its system MDA-MB-231. Kind of test: Labelling of cells, fluorescence cancer/non cancer ratio: MDA-MB-231 vs Breast epithelial cell. The conditions noted are these: fluorescence signal ratio; MDA-MB-231 (Breast adenocarcinoma) vs Breast epithelial cell; one doubling time (40 h). The protocol:
as §1, §2, §3, §4

In another test the test system is AGS. Description: Labelling of cells, fluorescence cancer/non cancer ratio: AGS vs Stomach epitelial cell. The settings on record: fluorescence signal ratio; AGS (Stomach, Gastric adenocarcinoma) vs Stomach epitelial cell; one doubling time (30 h). The protocol:
as §1, §2, §3, §4

Another test concerns A549. Kind of test: Labelling of cells, fluorescence cancer/non cancer ratio: A549 vs Bronchial epithelial cell. The settings on record: fluorescence signal ratio; A549 (Lung, Carcinoma) vs Bronchial epithelial cell; one doubling time (40 h). On the procedure: as §1, §2, §3, §4
A further test has as its system A431. Description: Labelling of cells, fluorescence cancer/non cancer ratio: A431 vs Hacat. The conditions noted are these: fluorescence signal ratio; A431 (Skin, Epidermoid carcinoma) vs Hacat; one doubling time (30 h). On the procedure:
as §1, §2, §3, §4

Another test has as its system MDA MB175. Kind of test: Labelling of cells, fluorescence cancer/non cancer ratio: MDA MB175 vs HME-1. The settings on record: fluorescence signal ratio; MDA MB175 (Breast cancer) vs HME-1; one doubling time (30 h). On the procedure: as §1, §2, §3, §4
A further test has as its system THP1. Description: Labelling of cells with azido-monosaccharide probe, fluorescence cancer/non cancer ratio: THP1 vs Monocytes/Macrophages. The settings on record: fluorescence signal ratio; THP1 (Blood, monocytic acute leukemia) vs Monocytes/Macrophages; incubation one doubling time (26 h). On the procedure:
as §1, §2, §3, §4

The subject of the next test is DOHH-2. Kind of test: Labelling of cells, fluorescence cancer/non cancer ratio: DOHH-2 vs Isolated primary B cells. The settings on record: fluorescence signal ratio; DOHH-2 (Blood, Diffuse large B-cell lymphoma germinal center B-cell type, 40-48 h) vs Isolated primary B cells. The protocol:
as §1, §2, §3, §4

A further test has as its system PANC. Kind of test: Labelling of cells, fluorescence cancer/non cancer ratio: PANC vs HPNE. The settings on record: fluorescence signal ratio; PANC (Pancreas, Pancreatic carcinoma) vs HPNE; one doubling time (32 h). The protocol:
as §1, §2, §3, §4

The test system of a further test is HT29. Description: Labelling of cells, fluorescence cancer/non cancer ratio: HT29 vs Colon epithelial cell. The settings on record: fluorescence signal ratio; HT29 (colon, Colorectal adenocarcinoma) vs Colon epithelial cell; one doubling time (40 h). The protocol: as §1, §2, §3, §4
The next test has as its system K562. Description: Labelling of cells, fluorescence cancer/non cancer ratio: K562 vs Lymphocytes T. The conditions noted are these: fluorescence signal ratio; K562 (Blood, Chronic Myeloid Leukemia) vs Lymphocytes T; one doubling time (24 h). The protocol: as §1, §2, §3, §4
Another test deals with KCL22. Description: Labelling of cells, fluorescence cancer/non cancer ratio: KCL22 vs Lymphocytes. The conditions noted are these: fluorescence signal ratio; KCL22 (Blood, chronic myelogenous leukemia) vs Lymphocytes; one doubling time (24 h). The protocol:
as §1, §2, §3, §4

A further test has as its system BL-2. Description: Labelling of cells, fluorescence cancer/non cancer ratio: BL-2 vs Isolated primary B cells. The settings on record: fluorescence signal ratio; BL-2 (Blood, non-endemic Burkitt lymphoma, 24 h) vs Isolated primary B cells. The protocol: as §1, §2, §3, §4
Another test deals with OCI-Ly3. Kind of test: Labelling of cells, fluorescence cancer/non cancer ratio: OCI-Ly3 vs Isolated primary B cells. The conditions noted are these: fluorescence signal ratio; OCI-Ly3 (Blood, Diffuse large B-cell lymphoma, 24 h) vs Isolated primary B cells. On the procedure:
as §1, §2, §3, §4

The structures appear in SMILES notation.

Regarding `[N-]=[N+]=NC[C@@H](O)[C@H](O)[C@@H](O)C=O` [Xylose-N3, 5-azido-5-deoxy-xylose], the “Cancer/Non Cancer Ratio” value is 2 in the test on Kasumi-1; 4 with MDA-MB-231; 2 with AGS; 10 in the test with A549; 12 in the test on A431; 3 with MDA MB175. For the same compound, the “Cancer/Non Cancer Ratio” value in the test with THP1 was 25; in the test on DOHH-2, 12; with PANC, 3; with HT29, 8; in the test with K562 it was 5; in the test on KCL22, 7. Further, the “Cancer/Non Cancer Ratio” value amounted to 2 in the test with BL-2 and 9 in the test on OCI-Ly3.

The values are drawn from US20240027435A1, “METHOD AND KIT FOR LABELING EUKARYOTIC CELLS FROM A MULTICELLULAR ORGANISM USING MODIFIED MONOSACCHARIDE COMPOUNDS AND PHARMACEUTICAL COMPOSITION COMPRISING SUCH CELLS” (THERAONCO, priority 2020, published 2024).
